Data published in patent publication US11247965B2 (VenatoRx Pharmaceuticals, Inc., priority 2017, dated 2022).
pEC50: −log10 of the molar value.

Columns and labels:
[1] = In vitro cytotoxicity, MTT cell viability assay in HepG2 cells; assay type: cell-based; details: human, Cytotoxicity CC50
Method in brief: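 HepG2 seeded overnight, then 7-day compound exposure (30 μM–1.0 nM, half-log steps), 37 °C. MTT 3-4 h, DMSO solubilization, A492. % of vehicle → CC50, 4-PL fit.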

[2] = test system: HBV replication in HepAD38 cells; assay: Anti-HBV activity in HepAD38 cells, extracellular HBV DNA by QPCR; assay type: cell-based, HBV (genotype D, serotype ayw); details: Hepatitis B virus, HePAD38, 168 h, read-out: Anti-HBV EC50, HepAD38 cells, extracellular HBV DNA by QPCR, 7 days of incubation
Method in brief: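 HepAD38 cells (HepG2 with tet-repressible HBV genotype D genome) seeded overnight, tetracycline removed, then treated 7 days with compounds (half-log dilutions, 30 μM–10 nM; 1:200 from DMSO). Supernatant HBV DNA quantified by QPCR against standard curve; % inhibition vs vehicle, EC50 by 4-parameter fit.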

Structure (SMILES) | CC50 at 7 days [1] | pEC50 [2]
O=C(Nc1ccc(F)c(Cl)c1)c1ccc(F)c(C(F)(F)C(=O)N2CCC(O)(CO)CC2)c1 [Example 172, N-(3-chloro-4-fluorophenyl)-3-(1,1-difluoro-2-(4-hydroxy-4-(hydroxymethyl)piperidin-1-yl)-2-oxoethyl)-4-fluorobenzamide] | 5 to 30 µM | > 5.30
O=C(Nc1cc(F)c(F)c(F)c1)c1ccc(F)c(C(F)(F)C(=O)N2[C@@H]3CC[C@H]2C[C@@H](O)C3)c1 [Example 173] | 5 to 30 µM | > 5.30
O=C(Nc1cc(F)c(F)c(F)c1)c1ccc(F)c(C(F)(F)C(=O)N2CCC(O)(CO)CC2)c1 [Example 174, 3-(1,1-difluoro-2-(4-hydroxy-4-(hydroxymethyl)piperidin-1-yl)-2-oxoethyl)-4-fluoro-N-(3,4,5-trifluorophenyl)benzamide] | 5 to 30 µM | > 5.30
O=C(Nc1ccc(F)c(Br)c1)c1ccc(F)c(C(F)(F)C(=O)N2CCC(O)C(F)(F)C2)c1 (stereo not drawn) [Example 175, N-(3-bromo-4-fluorophenyl)-3-(2-(3,3-difluoro-4-hydroxypiperidin-1-yl)-1,1-difluoro-2-oxoethyl)-4-fluorobenzamide] | 5 to 30 µM | > 5.30
O=C(Nc1ccc(F)c(Br)c1)c1ccc(F)c(C(F)(F)C(=O)N2[C@@H]3CC[C@H]2C[C@@H](O)C3)c1 [Example 176, N-(3-bromo-4-fluorophenyl)-3-(1,1-difluoro-2-((1R,3r,5S)-3-hydroxy-8-azabicyclo[3.2.1]octan-8-yl)-2-oxoethyl)-4-fluorobenzamide] | 5 to 30 µM | > 5.30
N#Cc1cc(NC(=O)c2ccc(F)c(C(F)(F)C(=O)N3CCC(O)C(F)(F)C3)c2)ccc1F (stereo not drawn) [Example 177, N-(3-cyano-4-fluorophenyl)-3-(2-(3,3-difluoro-4-hydroxypiperidin-1-yl)-1,1-difluoro-2-oxoethyl)-4-fluorobenzamide] | 5 to 30 µM | > 5.30
Cn1cc(NC(=O)c2ccc(F)c(C(F)(F)C(=O)N3CCC(O)C(F)(F)C3)c2)cn1 (stereo not drawn) [Example 179, 3-(2-(3,3-difluoro-4-hydroxypiperidin-1-yl)-1,1-difluoro-2-oxoethyl)-4-fluoro-N-(1-methyl-1H-pyrazol-4-yl)benzamide] | > 30 µM | 4.52 to 5.30
Cn1cc(NC(=O)c2ccc(F)c(C(F)(F)C(=O)N3[C@@H]4CC[C@H]3C[C@@H](O)C4)c2)cn1 [Example 180, 3-(1,1-difluoro-2-((1R,3r,5S)-3-hydroxy-8-azabicyclo[3.2.1]octan-8-yl)-2-oxoethyl)-4-fluoro-N-(1-methyl-1H-pyrazol-4-yl)benzamide] | > 30 µM | 4.52 to 5.30
Cn1cc(NC(=O)c2ccc(F)c(C(F)(F)C(=O)N3[C@@H]4CC[C@H]3C[C@H](O)C4)c2)cn1 [Example 181, 3-(1,1-difluoro-2-((1R,3s,5S)-3-hydroxy-8-azabicyclo[3.2.1]octan-8-yl)-2-oxoethyl)-4-fluoro-N-(1-methyl-1H-pyrazol-4-yl)benzamide] | > 30 µM | 4.52 to 5.30
Cn1cc(NC(=O)c2ccc(F)c(C(F)(F)C(=O)N3CCC(O)(CO)CC3)c2)cn1 [Example 182, 3-(1,1-difluoro-2-(4-hydroxy-4-(hydroxymethyl)piperidin-1-yl)-2-oxoethyl)-4-fluoro-N-(1-methyl-1H-pyrazol-4-yl)benzamide] | > 30 µM | 4.52 to 5.30
CC(C)n1cc(NC(=O)c2ccc(F)c(C(F)(F)C(=O)N3CCC(O)C(F)(F)C3)c2)cn1 (stereo not drawn) [Example 183, 3-(2-(3,3-difluoro-4-hydroxypiperidin-1-yl)-1,1-difluoro-2-oxoethyl)-4-fluoro-N-(1-isopropyl-1H-pyrazol-4-yl)benzamide] | > 30 µM | 4.52 to 5.30
CC(C)n1cc(NC(=O)c2ccc(F)c(C(F)(F)C(=O)N3[C@@H]4CC[C@H]3C[C@@H](O)C4)c2)cn1 [Example 184, 3-(1,1-difluoro-2-((1R,3r,5S)-3-hydroxy-8-azabicyclo[3.2.1]octan-8-yl)-2-oxoethyl)-4-fluoro-N-(1-isopropyl-1H-pyrazol-4-yl)benzamide] | > 30 µM | 4.52 to 5.30
CC(C)n1cc(NC(=O)c2ccc(F)c(C(F)(F)C(=O)N3[C@@H]4CC[C@H]3C[C@H](O)C4)c2)cn1 [Example 185, 3-(1,1-difluoro-2-((1R,3s,5S)-3-hydroxy-8-azabicyclo[3.2.1]octan-8-yl)-2-oxoethyl)-4-fluoro-N-(1-isopropyl-1H-pyrazol-4-yl)benzamide] | > 30 µM | 4.52 to 5.30
CC(C)n1cc(NC(=O)c2ccc(F)c(C(F)(F)C(=O)N3CCC(O)(CO)CC3)c2)cn1 [Example 186, 3-(1,1-difluoro-2-(4-hydroxy-4-(hydroxymethyl)piperidin-1-yl)-2-oxoethyl)-4-fluoro-N-(1-isopropyl-1H-pyrazol-4-yl)benzamide] | > 30 µM | 4.52 to 5.30
O=C(Nc1cc(F)c(F)c(F)c1)c1ccc(F)c(C(F)(F)C(=O)N2CCC(O)C(F)(F)C2)c1 (stereo not drawn) [Example 187, 3-(2-(3,3-difluoro-4-hydroxypiperidin-1-yl)-1,1-difluoro-2-oxoethyl)-4-fluoro-N-(3,4,5-trifluorophenyl)benzamide] | 5 to 30 µM | > 5.30
O=C(Nc1cc(F)c(F)c(F)c1)c1ccc(F)c(C(F)(F)C(=O)N2[C@@H]3CC[C@H]2C[C@H](O)C3)c1 [Example 188, 3-(1,1-difluoro-2-((1R,3s,5S)-3-hydroxy-8-azabicyclo[3.2.1]octan-8-yl)-2-oxoethyl)-4-fluoro-N-(3,4,5-trifluorophenyl)benzamide] | 5 to 30 µM | > 5.30
O=C(Nc1ccc(F)c(Br)c1)c1ccc(F)c(C(F)(F)C(=O)N2[C@@H]3CC[C@H]2C[C@H](O)C3)c1 [Example 189, N-(3-bromo-4-fluorophenyl)-3-(1,1-difluoro-2-((1R,3s,5S)-3-hydroxy-8-azabicyclo[3.2.1]octan-8-yl)-2-oxoethyl)-4-fluorobenzamide] | 5 to 30 µM | > 5.30
O=C(Nc1ccc(F)c(Br)c1)c1ccc(F)c(C(F)(F)C(=O)N2CCC(O)(CO)CC2)c1 [Example 190, N-(3-bromo-4-fluorophenyl)-3-(1,1-difluoro-2-(4-hydroxy-4-(hydroxymethyl)piperidin-1-yl)-2-oxoethyl)-4-fluorobenzamide] | 5 to 30 µM | > 5.30
N#Cc1cc(NC(=O)c2ccc(F)c(C(F)(F)C(=O)N3[C@@H]4CC[C@H]3C[C@H](O)C4)c2)ccc1F [Example 193, N-(3-cyano-4-fluorophenyl)-3-(1,1-difluoro-2-((1R,3s,5S)-3-hydroxy-8-azabicyclo[3.2.1]octan-8-yl)-2-oxoethyl)-4-fluorobenzamide] | 5 to 30 µM | > 5.30
N#Cc1cc(NC(=O)c2ccc(F)c(C(F)(F)C(=O)N3CCC(O)(CO)CC3)c2)ccc1F [Example 194, N-(3-cyano-4-fluorophenyl)-3-(1,1-difluoro-2-(4-hydroxy-4-(hydroxymethyl)piperidin-1-yl)-2-oxoethyl)-4-fluorobenzamide] | 5 to 30 µM | > 5.30
O=C(Nc1ccnc(Cl)c1)c1ccc(F)c(C(F)(F)C(=O)N2CCC(O)C(F)(F)C2)c1 (stereo not drawn) [Example 195, N-(2-chloropyridin-4-yl)-3-(2-(3,3-difluoro-4-hydroxypiperidin-1-yl)-1,1-difluoro-2-oxoethyl)-4-fluorobenzamide] | < 5 µM | > 5.30
O=C(Nc1ccnc(Cl)c1)c1ccc(F)c(C(F)(F)C(=O)N2[C@@H]3CC[C@H]2C[C@@H](O)C3)c1 [Example 196, N-(2-chloropyridin-4-yl)-3-(1,1-difluoro-2-((1R,3r,5S)-3-hydroxy-8-azabicyclo[3.2.1]octan-8-yl)-2-oxoethyl)-4-fluorobenzamide] | < 5 µM | > 5.30
O=C(Nc1ccnc(Cl)c1)c1ccc(F)c(C(F)(F)C(=O)N2[C@@H]3CC[C@H]2C[C@H](O)C3)c1 [Example 197, N-(2-chloropyridin-4-yl)-3-(1,1-difluoro-2-((1R,3s,5S)-3-hydroxy-8-azabicyclo[3.2.1]octan-8-yl)-2-oxoethyl)-4-fluorobenzamide] | < 5 µM | > 5.30
O=C(Nc1ccnc(Cl)c1)c1ccc(F)c(C(F)(F)C(=O)N2CCC(O)(CO)CC2)c1 [Example 198, N-(2-chloropyridin-4-yl)-3-(1,1-difluoro-2-(4-hydroxy-4-(hydroxymethyl)piperidin-1-yl)-2-oxoethyl)-4-fluorobenzamide] | 5 to 30 µM | > 5.30
O=C(Nc1ccc(F)c(F)c1)c1ccc(F)c(C(F)(F)C(=O)N2[C@@H]3CC[C@H]2C[C@H](O)C3)c1 [Example 199, 3-(1,1-difluoro-2-((1R,3s,5S)-3-hydroxy-8-azabicyclo[3.2.1]octan-8-yl)-2-oxoethyl)-N-(3,4-difluorophenyl)-4-fluorobenzamide] | 5 to 30 µM | > 5.30
Cc1cc(NC(=O)c2ccc(F)c(C(F)(F)C(=O)N3[C@@H]4CCC[C@H]3CC(=O)C4)c2)ccc1F [Example 200, 3-(1,1-difluoro-2-oxo-2-((1R,5S)-3-oxo-9-azabicyclo[3.3.1]nonan-9-yl)ethyl)-4-fluoro-N-(4-fluoro-3-methylphenyl)benzamide] | 5 to 30 µM | > 5.30
Cc1cc(NC(=O)c2ccc(F)c(C(F)(F)C(=O)N3[C@@H]4COC[C@H]3CC(=O)C4)c2)ccc1F [Example 201, 3-(1,1-difluoro-2-oxo-2-((1R,5S)-7-oxo-3-oxa-9-azabicyclo[3.3.1]nonan-9-yl)ethyl)-4-fluoro-N-(4-fluoro-3-methylphenyl)benzamide] | 5 to 30 µM | > 5.30
